We go through 15 compounds from ChEMBL document CHEMBL4311935, “Synthesis and antitumor activity of fluorouracil - oleanolic acid/ursolic acid/glycyrrhetinic acid conjugates” (Medchemcomm, 2019).

The subject of one assay is K562. The assay can be described thus: Cytotoxicity against human K562 cells assessed as cell growth inhibition after 48 hrs by MTT assay. The format is functional, cell-based. The settings on record: K562, 48 h. On the technique in general: Tetrazolium assays rely on reduction of a dye to a coloured formazan, in cell work by metabolically active cells.
The test system of a further assay is A549. In words: Cytotoxicity against human A549 cells assessed as cell growth inhibition after 48 hrs by MTT assay. The format is functional, cell-based. The settings on record: A549, 48 h.
For a further assay, the system named is MCF7. The assay can be described thus: Cytotoxicity against human MCF7 cells assessed as cell growth inhibition after 48 hrs by MTT assay. The format is functional, cell-based. To be noted: MCF7, 48 h.
The subject of the next assay is Bel-7402. In words: Cytotoxicity against human Bel7402 cells assessed as cell growth inhibition after 48 hrs by MTT assay. The format is functional, cell-based. To be noted: Bel-7402, 48 h.
Another assay has as its system L02. In words: Cytotoxicity against human LO2 cells assessed as cell growth inhibition after 48 hrs by MTT assay. It is filed as cell-based. To be noted: L02, 48 h.
For a further assay, the system named is K562/Adr. In words: Cytotoxicity against human K562/ADR cells assessed as cell growth inhibition after 48 hrs by MTT assay. The format is functional, cell-based.
The next assay has as its system A549/TR. The assay can be described thus: Cytotoxicity against human A549/T cells assessed as cell growth inhibition after 48 hrs by MTT assay. The format is functional, cell-based.
The next assay concerns NCI/ADR-RES. The assay can be described thus: Cytotoxicity against human MCF7/ADR cells assessed as cell growth inhibition after 48 hrs by MTT assay. It is filed as functional, cell-based.
For the next assay, the system named is Bel7402/5-FU. In words: Cytotoxicity against human Bel7402/5-FU cells assessed as cell growth inhibition after 48 hrs by MTT assay. The format is functional, cell-based.

Some results are limits rather than exact numbers.

The IC50 is the point on the concentration scale where inhibition reaches its midpoint. For the compound `CC1(C)CC[C@]2(C(=O)OCCCCCCn3cc(F)c(=O)n(CCCCCCOC(=O)[C@]45CCC(C)(C)C[C@H]4C4=CC[C@@H]6[C@@]7(C)CC[C@H](O)C(C)(C)[C@@H]7CC[C@@]6(C)[C@]4(C)CC5)c3=O)CC[C@]3(C)C(=CC[C@@H]4[C@@]5(C)CC[C@H](O)C(C)(C)[C@@H]5CC[C@]43C)[C@@H]2C1`, the IC50 with K562, in the assay on A549, with MCF7, with Bel-7402 and in the assay with L02 was greater than 200 µM throughout.
For the compound `CC1(C)CC[C@]2(C(=O)OCCCCCCCCn3cc(F)c(=O)[nH]c3=O)CC[C@]3(C)C(=CC[C@@H]4[C@@]5(C)CC[C@H](O)C(C)(C)[C@@H]5CC[C@]43C)[C@@H]2C1`, the IC50 with K562/Adr was greater than 200 µM; with K562 it was 23 µM; in the assay on A549, 50.5 µM; with MCF7 it was 53.6 µM; with Bel-7402, 43.8 µM; in the assay with A549/TR, 43.1 µM. The figures for the IC50 in the assay on L02, in the assay on NCI/ADR-RES and in the assay on Bel7402/5-FU were greater than 200 µM, 166 µM and 31.4 µM, respectively.
On to `C[C@H]1[C@H](C)CC[C@]2(C(=O)OCCCCCCn3cc(F)c(=O)n(CCCCCCOC(=O)[C@@]45CC[C@]6(C)C(=CC[C@@H]7[C@@]8(C)CC[C@H](O)C(C)(C)[C@@H]8CC[C@]76C)[C@@H]4C[C@@H](C)[C@H](C)C5)c3=O)CC[C@]3(C)C(=CC[C@@H]4[C@@]5(C)CC[C@H](O)C(C)(C)[C@@H]5CC[C@]43C)[C@H]12`, for which the concentration for half-maximal inhibition (IC50) in the assay with K562, in the assay on A549, with MCF7, in the assay on Bel-7402 and in the assay on L02 was greater than 200 µM in each case.
As for `C[C@H]1[C@H](C)CC[C@]2(C(=O)O)CC[C@]3(C)C(=CC[C@@H]4[C@@]5(C)CC[C@H](O)C(C)(C)[C@@H]5CC[C@]43C)[C@H]12` [URSOLIC ACID], the IC50 turned out to be 38.1 µM in the assay with K562/Adr; 41 µM in the assay on K562; 77.7 µM with A549; 70.1 µM in the assay on MCF7; 64.6 µM in the assay with Bel-7402; 58.4 µM in the assay with L02.
Consider `C[C@H]1[C@H](C)CC[C@]2(C(=O)OCCCCCCCCn3cc(F)c(=O)n(CCCCCCCCOC(=O)[C@@]45CC[C@]6(C)C(=CC[C@@H]7[C@@]8(C)CC[C@H](O)C(C)(C)[C@@H]8CC[C@]76C)[C@@H]4C[C@@H](C)[C@H](C)C5)c3=O)CC[C@]3(C)C(=CC[C@@H]4[C@@]5(C)CC[C@H](O)C(C)(C)[C@@H]5CC[C@]43C)[C@H]12`, for which the IC50 with K562, in the assay on A549, with MCF7, with Bel-7402 and in the assay with L02 was greater than 200 µM in each case.
Take `CC1(C)[C@@H](O)CC[C@]2(C)[C@H]3C(=O)C=C4[C@@H]5C[C@@](C)(C(=O)O)CC[C@]5(C)CC[C@@]4(C)[C@]3(C)CC[C@@H]12` [ENOXOLONE]: the IC50 is 86.5 µM with K562/Adr; greater than 200 µM with K562; greater than 200 µM in the assay on A549; greater than 200 µM in the assay with MCF7; greater than 200 µM with Bel-7402; 99.9 µM in the assay on A549/TR. Moreover, the results for the IC50 with L02, in the assay with NCI/ADR-RES and in the assay with Bel7402/5-FU were greater than 200 µM, 74.5 µM and 69.8 µM, respectively.
Regarding `CC1(C)[C@@H](O)CC[C@]2(C)[C@H]3C(=O)C=C4[C@@H]5C[C@@](C)(C(=O)OCCCCCCn6cc(F)c(=O)[nH]c6=O)CC[C@]5(C)CC[C@@]4(C)[C@]3(C)CC[C@@H]12`, the 50% inhibitory concentration (IC50) with K562 came to 35.1 µM; in the assay on A549 it was 49.4 µM; with MCF7 it was 50.3 µM; with Bel-7402, 40.9 µM; in the assay with L02, 73.2 µM.
Turning to `CC1(C)CC[C@]2(C(=O)O)CC[C@]3(C)C(=CC[C@@H]4[C@@]5(C)CC[C@H](O)C(C)(C)[C@@H]5CC[C@]43C)[C@@H]2C1` [OLEANOLIC_ACID], the concentration for half-maximal inhibition (IC50) with K562/Adr was greater than 200 µM; in the assay on K562 it was greater than 200 µM; in the assay with A549, 41.6 µM; in the assay on MCF7 it was greater than 200 µM; with Bel-7402 it was 59.9 µM; in the assay on A549/TR it was greater than 200 µM. The IC50 in the assay on L02, in the assay on NCI/ADR-RES and in the assay on Bel7402/5-FU was greater than 200 µM throughout.
Turning to `CC1(C)[C@@H](O)CC[C@]2(C)[C@H]3C(=O)C=C4[C@@H]5C[C@@](C)(C(=O)OCCCCCCCCn6cc(F)c(=O)n(CCCCCCCCOC(=O)[C@@]7(C)CC[C@]8(C)CC[C@]9(C)C(=CC(=O)[C@@H]%10[C@@]%11(C)CC[C@H](O)C(C)(C)[C@@H]%11CC[C@]%109C)[C@@H]8C7)c6=O)CC[C@]5(C)CC[C@@]4(C)[C@]3(C)CC[C@@H]12`, the IC50 with K562, in the assay with A549, in the assay on MCF7, with Bel-7402 and in the assay on L02 was greater than 200 µM throughout.
Regarding `C[C@H]1[C@H](C)CC[C@]2(C(=O)OCCCCCCCCn3cc(F)c(=O)[nH]c3=O)CC[C@]3(C)C(=CC[C@@H]4[C@@]5(C)CC[C@H](O)C(C)(C)[C@@H]5CC[C@]43C)[C@H]12`, the IC50 in the assay on K562, in the assay on A549, in the assay with MCF7, in the assay on Bel-7402 and in the assay on L02 was greater than 200 µM in each case.
For the compound `CC1(C)[C@@H](O)CC[C@]2(C)[C@H]3C(=O)C=C4[C@@H]5C[C@@](C)(C(=O)OCCCCCCn6cc(F)c(=O)n(CCCCCCOC(=O)[C@@]7(C)CC[C@]8(C)CC[C@]9(C)C(=CC(=O)[C@@H]%10[C@@]%11(C)CC[C@H](O)C(C)(C)[C@@H]%11CC[C@]%109C)[C@@H]8C7)c6=O)CC[C@]5(C)CC[C@@]4(C)[C@]3(C)CC[C@@H]12`, the IC50 in the assay on K562, in the assay on A549, in the assay with MCF7, in the assay on Bel-7402 and in the assay on L02 was greater than 200 µM each time.
For the compound `CC1(C)CC[C@]2(C(=O)OCCCCCCCCn3cc(F)c(=O)n(CCCCCCCCOC(=O)[C@]45CCC(C)(C)C[C@H]4C4=CC[C@@H]6[C@@]7(C)CC[C@H](O)C(C)(C)[C@@H]7CC[C@@]6(C)[C@]4(C)CC5)c3=O)CC[C@]3(C)C(=CC[C@@H]4[C@@]5(C)CC[C@H](O)C(C)(C)[C@@H]5CC[C@]43C)[C@@H]2C1`, the half-maximal inhibitory concentration (IC50) in the assay on K562, with A549, with MCF7, in the assay on Bel-7402 and with L02 was greater than 200 µM throughout.
In the case of `O=c1[nH]cc(F)c(=O)[nH]1` [FLUOROURACIL], the IC50 with K562/Adr was 31.9 µM; in the assay on K562, 41.7 µM; with A549 it was 50.4 µM; in the assay on MCF7, 52.1 µM; with Bel-7402, 53.3 µM; with A549/TR, 84.3 µM. Besides, the concentration for half-maximal inhibition (IC50) was greater than 200 µM in the assay on L02, 54.7 µM in the assay on NCI/ADR-RES and 38.2 µM with Bel7402/5-FU.
Take `C[C@H]1[C@H](C)CC[C@]2(C(=O)OCCCCCCn3cc(F)c(=O)[nH]c3=O)CC[C@]3(C)C(=CC[C@@H]4[C@@]5(C)CC[C@H](O)C(C)(C)[C@@H]5CC[C@]43C)[C@H]12`: the concentration for half-maximal inhibition (IC50) was determined as 14.9 µM in the assay with K562; 17.4 µM in the assay on A549; 18.9 µM in the assay on MCF7; 32.5 µM in the assay with Bel-7402; 22.2 µM with L02.
For `CC1(C)CC[C@]2(C(=O)OCCCCCCn3cc(F)c(=O)[nH]c3=O)CC[C@]3(C)C(=CC[C@@H]4[C@@]5(C)CC[C@H](O)C(C)(C)[C@@H]5CC[C@]43C)[C@@H]2C1`, the IC50 came to 14.9 µM in the assay on K562; 23.4 µM in the assay on A549; 24.3 µM with MCF7; 25.2 µM with Bel-7402; 46.6 µM with L02.
